Converted amounts (≈) assume the structure as drawn.
Experiments:
[1] = Stability of entrapped Doxycycline during hydration in FBS solution at 37° C.; format: physicochemical; details: after hydration for 21 days, matrix: released+reservoir
Procedure: Doxycycline is known to degenerate under hydrating conditions. The matrix composition of the present invention can protect Doxycycline from this degradation. The stability of the entrapped Doxycycline during the hydration of the matrix composition (in FBS solution at 37° C.) was tested. At each time point two parameters were tested: 1) Doxycycline molecules released from the medical device of the invention and 2) Doxycycline molecules reservoir in the medical device of the invention. The latter was extracted from the formulation using methylene chloride. The sum of the two Doxycycline quantities represents the overall quantity of Doxycycline in the product at each time point. Free Doxycycline, incubated under the same conditions, was used as control. Results are plotted in FIG. 3.

[2] = system: Staphylococcus aureus (ATCC 25923); test: Antibacterial activity of Doxycycline released from coated bone particles; format: cell-based; details: ATCC25923, released at different time points over 30 days following hydration
Procedure: The antibacterial activity against Staphylococcus aureus (ATCC 25923), of Doxycycline that was released from bone particles coated with the matrix composition of the invention was followed for a period of 30 days following its hydration (FIG. 4). The MIC (Minimal Inhibitory Concentration) for Doxycycline that was released from the matrix composition at different time points was calculated to be ˜1 μg/ml, and MIC 50 (the concentration that inhibits 50% growth) was ˜0.1 μg/ml, values that were similar to the control free Doxycycline.

[3] = system: S. aureus; details: Shaarei-Zedek Jerusalem Medical Center Database; cited from earlier work

Row | Molecule | overall doxycycline remaining intact, of the initial dose [1] [%] | MIC50 ([2]; read-out: MIC 50 (the concentration that inhibits 50% growth)) [µg/mL] | MIC ([2]; read-out: MIC (Minimal Inhibitory Concentration)) [µg/mL] | isolated S. aureus sub species in the clinic resistant to the antibiotic [3]
1 | C[C@H]1c2cccc(O)c2C(=O)C2=C(O)[C@]3(O)C(=O)C(C(N)=O)=C(O)[C@@H](N(C)C)[C@@H]3[C@@H](O)[C@@H]21 [free Doxycycline, Doxycycline] | 20 | ~0.1 (≈ 0.225 µM) | ~1 (≈ 2.25 µM) | –
2 | gentamicin | – | – | – | 30-40%
3 | penicillin | – | – | – | more than 50%
